# ChEMBL document CHEMBL1159211, “Antifungal evaluation of pseudolaric acid B, a major constituent of Pseudolarix kaempferi” (J Nat Prod, 1995)
# Calls of active or inactive are those of the source. The rule behind the calls is not given here.
# What was measured:
# [1] = tested on: Trichophyton mentagrophytes; test: Antimicrobial activity against Trichophyton mentagrophytes at 1 mg/mL by agar-well diffusion assay; assay type: functional
# [2] = tested on: Aspergillus flavus; test: Antimicrobial activity against Aspergillus flavus at 1 mg/mL by agar-well diffusion assay; assay type: functional
# [3] = tested on: Cryptococcus neoformans; test: Antimicrobial activity against Cryptococcus neoformans at 1 mg/mL by agar-well diffusion assay; assay type: functional
# [4] = tested on: Saccharomyces cerevisiae; test: Antimicrobial activity against Saccharomyces cerevisiae at 1 mg/mL by agar-well diffusion assay; assay type: functional, organism-based
# [5] = tested on: Bacillus subtilis; test: Antimicrobial activity against Bacillus subtilis at 1 mg/mL by agar-well diffusion assay; assay type: functional, organism-based
# [6] = tested on: Candida albicans; test: Antimicrobial activity against Candida albicans at 1 mg/mL by agar-well diffusion assay; assay type: functional; details: Candida albicans; read-out: IZ
# [7] = tested on: Mycobacterium intracellulare; test: Antimicrobial activity against Mycobacterium intracellular at 1 mg/mL by agar-well diffusion assay; assay type: functional; details: for zone of inhibition at 1000 µg/mL: read-out: IZ
# [8] = tested on: Pseudomonas aeruginosa; test: Antimicrobial activity against Pseudomonas aeruginosa at 1 mg/mL by agar-well diffusion assay; assay type: functional, organism-based
# [9] = tested on: Escherichia coli; test: Antimicrobial activity against Escherichia coli at 1 mg/mL by agar-well diffusion assay; assay type: functional, organism-based
# [10] = tested on: Aspergillus fumigatus; test: Antimicrobial activity against Aspergillus fumigatus at 1 mg/mL by agar-well diffusion assay; assay type: functional
# [11] = tested on: Nannizzia gypsea; test: Antimicrobial activity against Microsporum gypseum at 1 mg/mL by agar-well diffusion assay; assay type: functional
# [12] = tested on: Staphylococcus aureus; test: Antimicrobial activity against Staphylococcus aureus at 1 mg/mL by agar-well diffusion assay; assay type: functional, organism-based
# [13] = tested on: Candida albicans; test: Antifungal activity against Candida albicans B311 infected in CD1 mouse assessed as prolongation of survival time at 40 mg/kg, ip administered 7 hrs postinfection and continued for 7 or 14 consecutive days; assay type: functional, organism-based; design: dose 40 mg/kg
# [14] = tested on: Candida albicans; test: Antifungal activity against Candida albicans B311 assessed decrease in number of viable cells at 1 to 10 ug/ml after 24 hrs by time-to kill curve assay; assay type: functional, organism-based
# [15] = tested on: Candida albicans; test: Antifungal activity against Candida albicans B311 infected in CD1 mouse assessed as prolongation of survival time at 10 mg/kg, iv administered 1, 3 and 5 days postinfection; assay type: functional, organism-based; design: dose 10 mg/kg
# [16] = tested on: Candida tropicalis; test: Antifungal activity against Candida tropicalis ATCC 20021 at 1 mg/mL by agar-well diffusion assay; assay type: functional; details: Candida tropicalis, ATCC 20021; read-out: IZ
# [17] = tested on: Candida tropicalis; test: Antifungal activity against Candida tropicalis LM 64 by twofold serial broth dilution method; assay type: functional
# [18] = tested on: Candida parapsilosis; test: Antifungal activity against Candida parapsilosis ATCC 20224 by twofold serial broth dilution method; assay type: functional; details: Lodderomyces parapsilosis
# [19] = tested on: Torula; test: Antifungal activity against Torula cremoris NRRL 7495 by twofold serial broth dilution method; assay type: functional
# [20] = tested on: Candida albicans; test: Antifungal activity against Candida albicans B311 by twofold serial broth dilution method; assay type: functional
# [21] = tested on: Candida tropicalis; test: Antifungal activity against Candida tropicalis ATCC 20326 by twofold serial broth dilution method; assay type: functional
# [22] = tested on: Candida albicans; test: Antifungal activity against Candida albicans ATCC 10231 at 1 mg/mL by agar-well diffusion assay; assay type: functional; details: Candida albicans, ATCC 10231; read-out: IZ
# [23] = tested on: Torula; test: Antifungal activity against Torula cremoris NRRL 7495 at 1 mg/mL by agar-well diffusion assay; assay type: functional; details: Torula, NRRL 7495; read-out: IZ
# [24] = tested on: Candida tropicalis; test: Antifungal activity against Candida tropicalis LM 64 at 1 mg/mL by agar-well diffusion assay; assay type: functional; details: Candida tropicalis; read-out: IZ
# [25] = tested on: Candida parapsilosis; test: Antifungal activity against Candida parapsilosis ATCC 20224 at 1 mg/mL by agar-well diffusion assay; assay type: functional; details: Lodderomyces parapsilosis, ATCC 20224; read-out: IZ
# [26] = tested on: Starmerella magnoliae; test: Antifungal activity against Candida magnoliae ATCC 12573 at 1 mg/mL by agar-well diffusion assay; assay type: functional; details: ATCC 12573; read-out: IZ
# [27] = tested on: Candida albicans; test: Antifungal activity against Candida stellatoidea SA-I at 1 mg/mL by agar-well diffusion assay; assay type: functional; details: Candida albicans; read-out: IZ
# [28] = tested on: Candida albicans; test: Antifungal activity against Candida stellatoidea SA-I by twofold serial broth dilution method; assay type: functional
# [29] = tested on: Candida albicans; test: Antifungal activity against Candida albicans ATCC 10231 by twofold serial broth dilution method; assay type: functional
# [30] = tested on: Candida albicans; test: Antifungal activity against Candida albicans NIH B311 infected in mouse assessed as reduction in number of recovered colony-forming units assessed per mg of kidney at 1 mg/kg, ip administered 7 and 24 hrs after infection measured 16 hrs after final injection by tenfold serial dilution method relative to control; assay type: functional; design: scale not given: the % may be the effect or the level left; details: route intraperitoneal
# [31] = tested on: Candida albicans; test: Antifungal activity against Candida albicans B311 at 1 mg/mL by agar-well diffusion assay; assay type: functional; details: Candida albicans, B311; read-out: IZ
# [32] = tested on: Yarrowia deformans; test: Antifungal activity against Torulopsis petrophilum ATCC 20225 at 1 mg/mL by agar-well diffusion assay; assay type: functional; details: Yarrowia deformans, ATCC 20225; read-out: IZ
# [33] = tested on: Candida tropicalis; test: Antifungal activity against Candida tropicalis ATCC 20021 by twofold serial broth dilution method; assay type: functional
# [34] = tested on: Yarrowia deformans; test: Antifungal activity against Torulopsis petrophilum ATCC 20225 by twofold serial broth dilution method; assay type: functional
# [35] = tested on: Candida tropicalis; test: Antifungal activity against Candida tropicalis ATCC 20326 at 1 mg/mL by agar-well diffusion assay; assay type: functional; details: Candida tropicalis, ATCC 20326; read-out: IZ
Structure (SMILES),Activity [2],Activity [3],Activity [4],Activity [5],zone of inhibition at 1000 µg/mL [6] [mm],zone of inhibition at 1000 µg/mL [7] [mm],Activity [8],Activity [9],Activity [10],Activity [11],Activity [12],other results
COC(=O)C1=CC[C@@]23CC[C@@H]([C@@](C)(/C=C/C=C(\C)C(=O)OC)OC2=O)[C@@]3(OC(C)=O)CC1,inactive,inactive,inactive,inactive,< 1,1,inactive,inactive,inactive,inactive,inactive,Activity [1]: inactive
COC(=O)C1=CC[C@@]23CC[C@@H]([C@@](C)(/C=C/C=C(\C)C(=O)O)OC2=O)[C@@]3(OC(C)=O)CC1,inactive,inactive,inactive,inactive,–,–,inactive,inactive,–,–,inactive,Activity [13]: inactive; Activity [7]: inactive; Activity [14]: Active; Activity [15]: Active
C[C@@H]1[C@H](O)[C@@H](C)/C=C/C=C/C=C/C=C/C=C/C=C/C=C/[C@H](O[C@@H]2O[C@H](C)[C@@H](O)[C@H](N)[C@@H]2O)C[C@@H]2O[C@](O)(C[C@@H](O)C[C@@H](O)[C@H](O)CC[C@@H](O)C[C@@H](O)CC(=O)O[C@H]1C)C[C@H](O)[C@H]2C(=O)O [AMPHOTERICIN B],–,–,–,–,–,–,–,–,–,–,–,zone of inhibition at 1000 µg/mL [16]: 7 mm; MIC [17]: 1.56 µg/mL; MIC [18]: 1.56 µg/mL; MIC [19]: 3.12 µg/mL; MIC [20]: 1.56 µg/mL; MIC [21]: 1.56 µg/mL; zone of inhibition at 1000 µg/mL [22]: 7 mm; zone of inhibition at 1000 µg/mL [23]: 7 mm; zone of inhibition at 1000 µg/mL [24]: 7 mm; zone of inhibition at 1000 µg/mL [25]: 3 mm; zone of inhibition at 1000 µg/mL [26]: 7 mm; zone of inhibition at 1000 µg/mL [27]: 7 mm; MIC [28]: 3.12 µg/mL; MIC [29]: 3.12 µg/mL; Activity [30]: 99.82%; zone of inhibition at 1000 µg/mL [31]: 7 mm; zone of inhibition at 1000 µg/mL [32]: 7 mm; MIC [33]: 3.12 µg/mL; MIC [34]: 0.2 µg/mL; zone of inhibition at 1000 µg/mL [35]: 7 mm
C/C(=C\C=C\[C@@]1(C)OC(=O)[C@]23CC=C(C(=O)O)CC[C@]2(O)[C@H]1CC3)C(=O)O [DEMETHOXYDEACETOXYPSEUDOLARIC ACID B],inactive,inactive,inactive,inactive,< 1,1,inactive,inactive,inactive,inactive,inactive,"zone of inhibition at 1000 µg/mL ([1]; Trichophyton mentagrophytes, read-out: IZ): 3 mm"
